The subject of experiment [1] is B16. Description: Growth inhibition of mouse B16 cells incubated for 48 hrs by MTT assay. The format is functional. The following applies: for GI50: B16, 48 h. For orientation: Tetrazolium assays rely on reduction of a dye to a coloured formazan, in cell work by metabolically active cells.
For experiment [2], the species on record is Homo sapiens. The experiment in a line: Selectivity index, ratio of IC50 for human recombinant HDAC1 to IC50 for human recombinant HDAC6.
For experiment [3], the system named is B16. Description: Inhibition of Class 1 histone deacetylase in mouse B16 cells assessed as increase in histone H3 acetylation at 10 uM incubated for 24 hrs by Western blotting. The format is cell-based. (In general: In western blotting, separated proteins are transferred to a membrane and probed.)
The subject of experiment [4] is B16. The experiment in a line: Inhibition of Class 1 histone deacetylase in mouse B16 cells assessed as increase in histone H3 acetylation at 1 uM incubated for 24 hrs by Western blotting. The experiment is classed as cell-based.
The subject of experiment [5] is B16. The experiment in a line: Inhibition of Class 1 histone deacetylase in mouse B16 cells assessed as increase in histone H3 acetylation at 1 to 100 nM incubated for 24 hrs by Western blotting. The experiment is classed as cell-based.
Experiment [6] has as its target T1, Protein deacetylase HDAC6 (Mus musculus) (UniProt Q9Z2V5).
T1 sequence (whole entry): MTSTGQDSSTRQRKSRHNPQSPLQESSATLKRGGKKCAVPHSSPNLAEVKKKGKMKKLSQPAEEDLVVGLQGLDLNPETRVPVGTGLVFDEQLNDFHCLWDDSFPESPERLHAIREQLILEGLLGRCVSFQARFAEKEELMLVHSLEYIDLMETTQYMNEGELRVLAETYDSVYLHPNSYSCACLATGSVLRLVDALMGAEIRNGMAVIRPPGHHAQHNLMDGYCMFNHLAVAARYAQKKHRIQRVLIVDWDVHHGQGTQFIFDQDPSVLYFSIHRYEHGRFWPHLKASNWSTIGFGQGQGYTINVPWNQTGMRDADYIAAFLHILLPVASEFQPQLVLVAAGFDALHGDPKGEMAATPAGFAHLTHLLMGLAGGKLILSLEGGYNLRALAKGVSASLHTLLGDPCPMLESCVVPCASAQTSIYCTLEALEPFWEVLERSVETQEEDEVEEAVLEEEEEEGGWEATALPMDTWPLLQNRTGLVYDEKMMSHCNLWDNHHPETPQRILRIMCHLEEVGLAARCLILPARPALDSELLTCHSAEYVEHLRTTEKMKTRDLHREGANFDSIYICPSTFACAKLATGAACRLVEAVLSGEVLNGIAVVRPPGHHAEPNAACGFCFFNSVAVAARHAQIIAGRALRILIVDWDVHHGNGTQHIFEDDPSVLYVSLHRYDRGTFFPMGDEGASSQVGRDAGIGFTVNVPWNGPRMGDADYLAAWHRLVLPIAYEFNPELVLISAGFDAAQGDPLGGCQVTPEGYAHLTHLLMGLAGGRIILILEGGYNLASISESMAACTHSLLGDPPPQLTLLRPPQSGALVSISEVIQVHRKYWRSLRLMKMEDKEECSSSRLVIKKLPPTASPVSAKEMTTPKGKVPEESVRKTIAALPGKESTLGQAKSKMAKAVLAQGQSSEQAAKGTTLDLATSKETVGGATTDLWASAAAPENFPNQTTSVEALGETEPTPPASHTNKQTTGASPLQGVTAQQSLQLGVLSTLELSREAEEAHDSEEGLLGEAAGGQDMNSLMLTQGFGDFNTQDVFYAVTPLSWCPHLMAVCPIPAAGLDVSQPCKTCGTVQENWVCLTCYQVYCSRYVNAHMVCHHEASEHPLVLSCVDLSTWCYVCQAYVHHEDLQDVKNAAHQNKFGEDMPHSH
The experiment in a line: Inhibition of HDAC6 in mouse B16 cells assessed as increase in acetyl alpha-tubulin level incubated for 24 hrs by Western blotting. The experiment is classed as cell-based.

Active and inactive are the calls of the source. The calls are words filed in the database; no cut-off is given here.

With `O=C(NO)c1ccc(CN(CCc2ccccc2)C(=O)Nc2ccccc2)cc1`, in experiment [1], the “growth inhibition (GI)” value is “Dose-dependent effect” and the concentration for 50% growth inhibition (GI50) turned out to be 15.4 µM. The Ratio IC50 in experiment [2] is 222.
Take `CN1CCc2c(c3ccccc3n2Cc2ccc(C(=O)NO)cc2)C1` [TUBASTATIN A]: in experiment [1], the “growth inhibition (GI)” value was “Dose-dependent effect” and growth was halved (GI50) at 40.5 µM.
In the case of `Cc1[nH]c2ccccc2c1CCNCc1ccc(/C=C/C(=O)NO)cc1` [PANOBINOSTAT], in experiment [1], the “growth inhibition (GI)” value is “Dose-dependent effect” and halving of growth (GI50) required 0.15 µM.
Regarding `CCCCN(Cc1ccc(C(=O)NO)cc1)C(=O)Nc1ccccc1`, the “growth inhibition (GI)” value in experiment [1] is “Dose-dependent effect”. For the same compound, the inhibition result in experiment [3] and in experiment [4] was “Active” in each case. Besides, the inhibition result in experiment [5] was “inactive”. The inhibition entry in experiment [6] is “Dose-dependent effect”.
In the case of `COc1ccccc1NC(=O)NCc1ccc(C(=O)NO)cc1`, the Ratio IC50 in experiment [2] was found to be 2.
As for `CCN(C(=O)NCc1ccc(C(=O)NO)cc1)c1ccccc1`, in experiment [1], the “growth inhibition (GI)” value was “Dose-dependent effect” and the concentration for 50% growth inhibition (GI50) was greater than 100 µM. Besides, the Ratio IC50 in experiment [2] was found to be 330.
With `COCCCN(Cc1ccc(C(=O)NO)cc1)C(=O)Nc1ccccc1`, in experiment [1], the “growth inhibition (GI)” value was “Dose-dependent effect” and halving of growth (GI50) required 22.2 µM. Further, the Ratio IC50 in experiment [2] came to 443.
Consider `COCCN(Cc1ccc(C(=O)NO)cc1)C(=O)Nc1ccccc1`, for which the “growth inhibition (GI)” value in experiment [1] was “Dose-dependent effect”. In addition, the Ratio IC50 in experiment [2] turned out to be 243.
`COc1ccccc1NC(=O)N(CCc1c[nH]c2ccccc12)Cc1ccc(C(=O)NO)cc1`: in experiment [1], the “growth inhibition (GI)” value is “Dose-dependent effect” and the concentration for 50% growth inhibition (GI50) stood at 30.4 µM. The Ratio IC50 in experiment [2] was determined as 19.
Consider `COc1ccccc1NC(=O)N(CCc1ccc(O)cc1)Cc1ccc(C(=O)NO)cc1`, for which, in experiment [1], the “growth inhibition (GI)” value is “Dose-dependent effect” and the concentration for 50% growth inhibition (GI50) amounted to 18.4 µM. Also, in experiment [2], the Ratio IC50 was found to be 292.
As for `COc1ccccc1NC(=O)N(CCCN(C)C)Cc1ccc(C(=O)NO)cc1`, in experiment [1], the “growth inhibition (GI)” value is “Dose-dependent effect” and halving of growth (GI50) required 75.3 µM. Further, the Ratio IC50 in experiment [2] was found to be 6.
For `COCCCN(C(=O)NCc1ccc(C(=O)NO)cc1)c1ccccc1`, in experiment [1], the “growth inhibition (GI)” value is “Dose-dependent effect” and the concentration for 50% growth inhibition (GI50) is greater than 100 µM. For the same compound, the Ratio IC50 in experiment [2] amounted to 226.
With `COc1ccccc1NC(=O)N(CCCO)Cc1ccc(C(=O)NO)cc1`, in experiment [1], the “growth inhibition (GI)” value was “Dose-dependent effect” and the GI50 is greater than 100 µM. Moreover, the Ratio IC50 in experiment [2] turned out to be 803.
Turning to `CCCCN(C(=O)NCc1ccc(C(=O)NO)cc1)c1ccccc1`, in experiment [1], the “growth inhibition (GI)” value was “Dose-dependent effect” and it took 65.8 µM to inhibit growth by half (GI50). Besides, the Ratio IC50 in experiment [2] was found to be 322.

The term GI50 denotes the concentration giving 50% growth inhibition. A low value points to greater sensitivity of the cells.

The values above are taken from ChEMBL document CHEMBL2176914, “Selective histone deacetylase 6 inhibitors bearing substituted urea linkers inhibit melanoma cell growth” (J Med Chem, 2012).
